Laboratory results: patent US20080305995A1, “Royal Jelly Peptide and Composition Containing the Same” (priority 2003, published 2008)

Assays:
honeybee larvae = experiment: Effect of inducing differentiation to queen bees (honeybee artificial breeding, peptide in artificial diet); format: in vivo, Western honeybees (Apis mellifela)
Description: Functional analysis was carried out by using the royal jelly peptide obtained in Example 6. Specifically, honeybees were bred according to the existing honeybee artificial breeding method. In this process, 500 ng of the royal jelly peptide was added in the artificial diet to be administered per honeybee. On the other hand, for the control group, bovine serum albumin was used in place of the royal jelly peptide.
The growth rate from larvae to imagines is about 20%. […] From this, it can be considered that the royal jelly peptide of the invention of this invention is […] having an auxiliary function in inducing differentiation to queen bees.

[1] = tested on: lymphocyte cell derived from a mouse spleen; experiment: Immunity activation test (alamar blue, lymphocyte growth); format: cell-based, ICR type mice; conditions: 3 μg/ml and 6 μg/ml, every 12 hours for 4 days, compared with no addition (FIG. 9)
Description: For the laboratory animal, ICR type mice (female, Nippon SLC) were used.
Whereas, for the medium, an RPMI medium (manufactured by Nissui Pharmaceutical Co., Ltd.) containing 10% fetal calf serum (FCS), 2 mM L-glutamine, 50 μM 2-mercaptoethanol, 100 Units/ml penicillin, and 100 μg/ml streptomycin was used. Thus, culturing was carried out in 5% CO2 at 37° C. under wet conditions.
Namely, the mice anesthetized with diethyl ether were subjected to cervical vertebrae dislocation, and fixed. Then, by using scissors for dissection and tweezers, the spleen was excised, and transferred to a dish containing therein 10 ml of PBS (−) (137 mM NaCl, 2.7 mM KCl, 2 mM Na2HPO4-12HyO, 1.5 mM KH2PO4). In the dish, the spleen was homogenized. […]
The lymph cell suspension controlled was dyed with a 0.4% trypan blue solution, and the number of cells was counted by means of a Burker-Turk hemocytomer. […]
The lymph cell suspension controlled in the item <bb was added in an amount of 100 μl per well into a 96-well microplate (manufactured by IWAKI Co.). […] Thus, the changes in absorbance were measured by means of a microplate reader (manufactured by Nalge Nunc International Co.) set at a wavelength of 590 to 620 nm every 12 hours for 4 days to analyze the effects of each fraction and isolated compound on the lymphocytes. […]

[2] = 500 ng per honeybee in artificial diet, 24 first instar larvae
[3] = 500 ng per honeybee in artificial diet, number among imagines

apisimin (KTSISVKGESNVDVVSQINSLVSSIVSGANVSAVLLAQTLVNILQILIDANVFA) [Recombinant peptide, Royal jelly peptide of 54 amino acid residues (apisimin), expressed in E. coli as thioredoxin fusion, cleaved with Factor Xa]
Number of imagines (honeybee larvae; [2]): 4 | Number of last instar larvae (honeybee larvae; [2]): 14 | Number of pupae (honeybee larvae; [2]): 8 | Caste: Intermediates (honeybee larvae; [3]): 1 | Caste: Queen (honeybee larvae; [3]): 0 | Caste: Working bee (honeybee larvae; [3]): 3 | growth rate from larvae to imagines (honeybee larvae; Table 1 experiment): about 20% | emergence of intermediates out of the larvae (honeybee larvae; larvae to which the royal jelly peptide had been administered): intermediates can be allowed to emerge | effect on the growth of lymphocyte cells (alamar blue absorbance) [1]: remarkably exhibited
